Source: patent publication US9212182B2, “Bicyclic sulfonamide compounds as sodium channel inhibitors” (AMGEN INC., priority 2013, dated 2015)

molecular target: Nav 1.7 (Homo sapiens (Human), UniProt Q15858); assay: in-vitro Nav 1.7 PX (IC50); format: cell-based; conditions: not given
Sequence (Q15858 whole entry): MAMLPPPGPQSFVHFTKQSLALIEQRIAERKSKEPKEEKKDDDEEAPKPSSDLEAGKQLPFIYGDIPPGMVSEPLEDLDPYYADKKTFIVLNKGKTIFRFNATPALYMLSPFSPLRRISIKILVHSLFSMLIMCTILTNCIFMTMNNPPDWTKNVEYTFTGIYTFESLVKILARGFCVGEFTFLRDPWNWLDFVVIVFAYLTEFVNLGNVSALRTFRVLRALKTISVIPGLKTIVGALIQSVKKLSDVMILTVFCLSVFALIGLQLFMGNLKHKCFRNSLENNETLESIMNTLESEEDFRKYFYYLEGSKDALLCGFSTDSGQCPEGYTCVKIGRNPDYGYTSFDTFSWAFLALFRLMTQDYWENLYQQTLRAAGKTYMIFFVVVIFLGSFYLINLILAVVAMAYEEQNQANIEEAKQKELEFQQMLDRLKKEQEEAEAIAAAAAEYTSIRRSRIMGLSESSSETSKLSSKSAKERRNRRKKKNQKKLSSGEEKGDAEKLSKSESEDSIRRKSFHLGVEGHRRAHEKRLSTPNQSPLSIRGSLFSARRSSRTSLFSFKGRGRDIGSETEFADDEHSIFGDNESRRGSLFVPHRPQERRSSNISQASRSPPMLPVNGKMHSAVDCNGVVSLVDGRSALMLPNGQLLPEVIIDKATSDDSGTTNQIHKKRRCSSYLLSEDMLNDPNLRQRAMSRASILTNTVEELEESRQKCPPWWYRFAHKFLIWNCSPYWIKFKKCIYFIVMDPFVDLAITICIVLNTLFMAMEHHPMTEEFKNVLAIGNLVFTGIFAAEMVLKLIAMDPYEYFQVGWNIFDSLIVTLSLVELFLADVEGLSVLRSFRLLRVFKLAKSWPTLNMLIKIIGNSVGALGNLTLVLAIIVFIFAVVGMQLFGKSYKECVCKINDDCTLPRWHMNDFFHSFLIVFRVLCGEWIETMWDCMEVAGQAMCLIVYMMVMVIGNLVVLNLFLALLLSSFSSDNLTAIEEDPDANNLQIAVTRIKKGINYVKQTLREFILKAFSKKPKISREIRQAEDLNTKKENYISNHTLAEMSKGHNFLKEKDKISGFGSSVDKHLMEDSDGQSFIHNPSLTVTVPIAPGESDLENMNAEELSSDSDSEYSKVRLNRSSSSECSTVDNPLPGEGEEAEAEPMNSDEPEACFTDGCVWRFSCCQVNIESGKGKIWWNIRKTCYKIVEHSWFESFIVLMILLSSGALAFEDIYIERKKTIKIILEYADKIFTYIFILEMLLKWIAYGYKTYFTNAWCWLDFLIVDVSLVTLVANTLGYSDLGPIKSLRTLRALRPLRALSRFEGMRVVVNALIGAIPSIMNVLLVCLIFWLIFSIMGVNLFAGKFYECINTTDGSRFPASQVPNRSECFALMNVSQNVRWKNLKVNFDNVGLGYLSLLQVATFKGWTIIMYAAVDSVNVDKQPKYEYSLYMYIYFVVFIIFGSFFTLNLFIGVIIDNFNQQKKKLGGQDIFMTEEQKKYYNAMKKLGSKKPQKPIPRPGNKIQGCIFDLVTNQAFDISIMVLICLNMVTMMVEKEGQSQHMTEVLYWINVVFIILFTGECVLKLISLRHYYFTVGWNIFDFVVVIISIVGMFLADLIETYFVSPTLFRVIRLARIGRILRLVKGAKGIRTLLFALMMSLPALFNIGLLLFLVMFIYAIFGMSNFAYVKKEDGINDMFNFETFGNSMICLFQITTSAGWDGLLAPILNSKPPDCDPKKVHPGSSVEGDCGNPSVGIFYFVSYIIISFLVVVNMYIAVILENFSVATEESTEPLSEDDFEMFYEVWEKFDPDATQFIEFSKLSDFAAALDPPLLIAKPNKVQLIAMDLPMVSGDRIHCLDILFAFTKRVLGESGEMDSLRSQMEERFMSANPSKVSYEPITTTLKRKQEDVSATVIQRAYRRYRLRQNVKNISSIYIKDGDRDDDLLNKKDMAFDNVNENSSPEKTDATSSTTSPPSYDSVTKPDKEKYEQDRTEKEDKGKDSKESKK

IC50 | SMILES
265 nM | COc1cc(-c2ccc(F)c(F)c2)c(F)cc1-n1c(=O)cnc2cc(S(=O)(=O)Nc3cccnn3)ccc21 [Example 1180, 2-oxo-N-3-pyridazinyl-1-(2,3′,4′-trifluoro-5-methoxy-4-biphenylyl)-1,2-dihydro-6-quinoxalinesulfonamide]
3080 nM | COc1ccc(-c2cccc(C(F)(F)F)c2)cc1-n1c(=O)ccc2cc(S(=O)(=O)Nc3ccon3)ccc21 (atropisomer, axis not shown; (M)) [Example 382, (M)-N-3-isoxazolyl-1-(4-methoxy-3′-(trifluoromethyl)-3-biphenylyl)-2-oxo-1,2-dihydro-6-quinolinesulfonamide]
7 nM | COc1cc(-c2cc(F)cc(Cl)c2)c(F)cc1-n1c(=O)ccc2cc(S(=O)(=O)Nc3cccnn3)ccc21 (atropisomer, axis not shown; (P)) [Example 542, (P)-1-(3′-chloro-2,5′-difluoro-5-methoxy-4-biphenylyl)-2-oxo-N-3-pyridazinyl-1,2-dihydro-6-quinolinesulfonamide]
5050 nM | COc1cc(-c2ccc(Cl)c(C)c2)ccc1-n1c(=O)ccc2cc(S(=O)(=O)Nc3ccon3)ccc21 (atropisomer, axis not shown; (M)) [Example 431, (M)-1-(4′-chloro-3-methoxy-3′-methyl-4-biphenylyl)-N-3-isoxazolyl-2-oxo-1,2-dihydro-6-quinolinesulfonamide]
42 nM | COc1cc(-c2cnc(OC)c(Cl)c2)c(F)cc1-n1c(=O)ccc2cc(S(=O)(=O)Nc3ncc(F)cn3)ccc21 (atropisomer, axis not shown; (P)) [Example 1156, (P)-1-(4-(5-chloro-6-methoxy-3-pyridinyl)-5-fluoro-2-methoxyphenyl)-N-(5-fluoro-2-pyrimidinyl)-2-oxo-1,2-dihydro-6-quinolinesulfonamide]

SMILES | IC50
COc1cc(-c2cccc(Cl)c2)ccc1-n1c(=O)ccc2cc(S(=O)(=O)Nc3ccon3)ccc21 [Example 350, P-1-(3′-chloro-3-methoxy-[1,1′-biphenyl]-4-yl)-N-(isoxazol-3-yl)-2-oxo-1,2-dihydroquinoline-6-sulfonamide] | 26 nM

same assay, conditions: in-vitro Nav 1.7 PX data

IC50 | SMILES
34 nM | COc1cc(-c2ccc(F)c(C)c2)c(F)cc1-n1c(=O)ccc2cc(S(=O)(=O)Nc3cc(C)ncn3)ccc21 [Example 945, 1-(2,4′-difluoro-5-methoxy-3′-methyl-4-biphenylyl)-N-(6-methyl-4-pyrimidinyl)-2-oxo-1,2-dihydro-6-quinolinesulfonamide]
47 nM | COc1nc(-c2cccc(C)c2)c(Cl)cc1-n1c(=O)ccc2cc(S(=O)(=O)Nc3ccon3)ccc21 [Example 1088, 1-(5-chloro-2-methoxy-6-(3-methylphenyl)-3-pyridinyl)-N-3-isoxazolyl-2-oxo-1,2-dihydro-6-quinolinesulfonamide]
10800 nM | COc1cc(Cl)c(-c2cc(F)cc(Cl)c2)cc1-n1c(=O)ccc2cc(S(=O)(=O)Nc3ccon3)ccc21 (atropisomer, axis not shown; (M)) [Example 615, (M)-1-(3′,6-dichloro-5′-fluoro-4-methoxy-3-biphenylyl)-N-3-isoxazolyl-2-oxo-1,2-dihydro-6-quinolinesulfonamide]
35 nM | COc1ccc(-c2ccc(OC)c(-n3c(=O)ccc4cc(S(=O)(=O)Nc5ccon5)ccc43)c2)cc1Cl [Example 884, 1-(3′-chloro-4,4′-dimethoxy-3-biphenylyl)-N-3-isoxazolyl-2-oxo-1,2-dihydro-6-quinolinesulfonamide]
48 nM | COc1cc(-c2cccc(OC(F)F)c2)ccc1-n1c(=O)ccc2cc(S(=O)(=O)Nc3ccon3)ccc21 [Example 786, 1-(3′-(difluoromethoxy)-3-methoxy-4-biphenylyl)-N-3-isoxazolyl-2-oxo-1,2-dihydro-6-quinolinesulfonamide]
98 nM | COc1cc(-c2cccc(C#N)c2)ccc1-n1c(=O)ccc2cc(S(=O)(=O)Nc3ccon3)ccc21 [Example 1019, 1-(3′-cyano-3-methoxy-4-biphenylyl)-N-3-isoxazolyl-2-oxo-1,2-dihydro-6-quinolinesulfonamide]
224 nM | COc1cc(-c2cc(OC)c(-n3c(=O)ccc4cc(S(=O)(=O)Nc5ccon5)ccc43)cc2F)ccn1 [Example 739, 1-(5-fluoro-2-methoxy-4-(2-methoxy-4-pyridinyl)phenyl)-N-3-isoxazolyl-2-oxo-1,2-dihydro-6-quinolinesulfonamide]
27 nM | COc1cc(Cl)ccc1-c1ccc(-n2c(=O)ccc3cc(S(=O)(=O)Nc4ccon4)ccc32)c(OC)c1 [Example 816, 1-(4′-chloro-2′,3-dimethoxy-4-biphenylyl)-N-3-isoxazolyl-2-oxo-1,2-dihydro-6-quinolinesulfonamide]
32 nM | COc1ccc(-c2cc(Cl)ccc2F)cc1-n1c(=O)ccc2cc(S(=O)(=O)Nc3ccon3)ccc21 [Example 880, 1-(5′-chloro-2′-fluoro-4-methoxy-3-biphenylyl)-N-3-isoxazolyl-2-oxo-1,2-dihydro-6-quinolinesulfonamide]
2260 nM | COc1cc(C[C@H]2CCCCO2)c(F)cc1-n1c(=O)ccc2cc(S(=O)(=O)Nc3ccon3)ccc21 [Example 1133, 1-(5-fluoro-2-methoxy-4-((2R)-tetrahydro-2H-pyran-2-ylmethyl)phenyl)-N-3-isoxazolyl-2-oxo-1,2-dihydro-6-quinolinesulfonamide, 1-(5-fluoro-2-methoxy-4-((2S)-tetrahydro-2H-pyran-2-ylmethyl)phenyl)-N-3-isoxazolyl-2-oxo-1,2-dihydro-6-quinolinesulfonamide]
178 nM | COc1ccc(-c2ccc(F)cc2F)cc1-n1c(=O)ccc2cc(S(=O)(=O)Nc3ccon3)ccc21 [Example 837, 1-(2′,4′-difluoro-4-methoxy-3-biphenylyl)-N-3-isoxazolyl-2-oxo-1,2-dihydro-6-quinolinesulfonamide]
37 nM | COc1cc(-c2cc(F)cc(C(F)(F)F)c2)ccc1-n1c(=O)ccc2cc(S(=O)(=O)Nc3ccnc(C)n3)ccc21 [Example 1100, 1-(3′-fluoro-3-methoxy-5′-(trifluoromethyl)-4-biphenylyl)-N-(2-methyl-4-pyrimidinyl)-2-oxo-1,2-dihydro-6-quinolinesiilfonamide]
6 nM | COc1cc(-c2cccc(C3CC3)c2)ccc1-n1c(=O)ccc2cc(S(=O)(=O)Nc3ccon3)ccc21 [Example 788, 1-(3′-cyclopropyl-3-methoxy-4-biphenylyl)-N-3-isoxazolyl-2-oxo-1,2-dihydro-6-quinolinesulfonamide]

same assay, conditions: in-vitro Nav 1.7 PX data (PatchXpress)

IC50 | SMILES
25400 nM | CC(C#N)Oc1cc(Br)c(F)cc1-n1c(=O)ccc2cc(S(=O)(=O)Nc3ccon3)ccc21 (stereo not shown) [Example 680, 1-(4-bromo-2-(1-cyanoethoxy)-5-fluorophenyl)-N-(isoxazol-3-yl)-2-oxo-1,2-dihydroquinoline-6-sulfonamide]

same assay, conditions: in-vitro PatchXpress (PX)

IC50 | SMILES
342 nM | COc1cc(-c2cc(F)cnc2OC)c(F)cc1-n1c(=O)ccc2cc(S(=O)(=O)Nc3ccon3)ccc21 [Example 531, 1-(5-fluoro-4-(5-fluoro-2-methoxy-3-pyridinyl)-2-methoxyphenyl)-N-3-isoxazolyl-2-oxo-1,2-dihydro-6-quinolinesulfonamide]
1260 nM | COc1cc(-c2ccc(F)c(Cl)c2)c(F)cc1-n1c(=O)ccc2cc(S(=O)(=O)Nc3ccon3)ccc21 (atropisomer, axis not shown; (M)) [Example 366, (M)-1-(3′-chloro-2,4′-difluoro-5-methoxy-4-biphenylyl)-N-3-isoxazolyl-2-oxo-1,2-dihydro-6-quinolinesulfonamide]
